In ChEMBL document CHEMBL3045711, “Neonicotinoid insecticides: oxidative stress in planta and metallo-oxidase inhibition” (J Agric Food Chem, 2011):

How the values were obtained:
Tyrosinase = target: T1, Tyrosinase (Agaricus bisporus, UniProt O42713)
T1 sequence (O42713 whole entry): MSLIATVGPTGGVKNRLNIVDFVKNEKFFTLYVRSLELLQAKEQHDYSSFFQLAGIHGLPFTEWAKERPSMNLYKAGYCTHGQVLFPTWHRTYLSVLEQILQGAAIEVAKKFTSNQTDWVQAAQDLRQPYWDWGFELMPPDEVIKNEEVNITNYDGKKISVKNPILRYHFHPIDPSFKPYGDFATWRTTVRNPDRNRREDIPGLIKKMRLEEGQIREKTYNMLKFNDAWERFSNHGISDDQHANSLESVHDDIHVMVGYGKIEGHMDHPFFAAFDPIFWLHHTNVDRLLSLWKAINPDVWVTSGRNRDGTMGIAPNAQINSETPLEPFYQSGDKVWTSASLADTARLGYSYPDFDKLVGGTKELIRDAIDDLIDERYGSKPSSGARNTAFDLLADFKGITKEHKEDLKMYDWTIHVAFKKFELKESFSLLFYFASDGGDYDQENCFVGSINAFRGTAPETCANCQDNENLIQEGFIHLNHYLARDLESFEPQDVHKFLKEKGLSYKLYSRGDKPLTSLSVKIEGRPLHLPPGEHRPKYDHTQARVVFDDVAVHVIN
Description: Inhibition of Agaricus bisporus (mushroom) tyrosinase

Aldehyde oxidase 1 = target: T2, Aldehyde oxidase 1 (Oryctolagus cuniculus, UniProt P80456); type: ADME, tissue-based, Liver, Cytosol
T2 sequence (P80456 whole entry): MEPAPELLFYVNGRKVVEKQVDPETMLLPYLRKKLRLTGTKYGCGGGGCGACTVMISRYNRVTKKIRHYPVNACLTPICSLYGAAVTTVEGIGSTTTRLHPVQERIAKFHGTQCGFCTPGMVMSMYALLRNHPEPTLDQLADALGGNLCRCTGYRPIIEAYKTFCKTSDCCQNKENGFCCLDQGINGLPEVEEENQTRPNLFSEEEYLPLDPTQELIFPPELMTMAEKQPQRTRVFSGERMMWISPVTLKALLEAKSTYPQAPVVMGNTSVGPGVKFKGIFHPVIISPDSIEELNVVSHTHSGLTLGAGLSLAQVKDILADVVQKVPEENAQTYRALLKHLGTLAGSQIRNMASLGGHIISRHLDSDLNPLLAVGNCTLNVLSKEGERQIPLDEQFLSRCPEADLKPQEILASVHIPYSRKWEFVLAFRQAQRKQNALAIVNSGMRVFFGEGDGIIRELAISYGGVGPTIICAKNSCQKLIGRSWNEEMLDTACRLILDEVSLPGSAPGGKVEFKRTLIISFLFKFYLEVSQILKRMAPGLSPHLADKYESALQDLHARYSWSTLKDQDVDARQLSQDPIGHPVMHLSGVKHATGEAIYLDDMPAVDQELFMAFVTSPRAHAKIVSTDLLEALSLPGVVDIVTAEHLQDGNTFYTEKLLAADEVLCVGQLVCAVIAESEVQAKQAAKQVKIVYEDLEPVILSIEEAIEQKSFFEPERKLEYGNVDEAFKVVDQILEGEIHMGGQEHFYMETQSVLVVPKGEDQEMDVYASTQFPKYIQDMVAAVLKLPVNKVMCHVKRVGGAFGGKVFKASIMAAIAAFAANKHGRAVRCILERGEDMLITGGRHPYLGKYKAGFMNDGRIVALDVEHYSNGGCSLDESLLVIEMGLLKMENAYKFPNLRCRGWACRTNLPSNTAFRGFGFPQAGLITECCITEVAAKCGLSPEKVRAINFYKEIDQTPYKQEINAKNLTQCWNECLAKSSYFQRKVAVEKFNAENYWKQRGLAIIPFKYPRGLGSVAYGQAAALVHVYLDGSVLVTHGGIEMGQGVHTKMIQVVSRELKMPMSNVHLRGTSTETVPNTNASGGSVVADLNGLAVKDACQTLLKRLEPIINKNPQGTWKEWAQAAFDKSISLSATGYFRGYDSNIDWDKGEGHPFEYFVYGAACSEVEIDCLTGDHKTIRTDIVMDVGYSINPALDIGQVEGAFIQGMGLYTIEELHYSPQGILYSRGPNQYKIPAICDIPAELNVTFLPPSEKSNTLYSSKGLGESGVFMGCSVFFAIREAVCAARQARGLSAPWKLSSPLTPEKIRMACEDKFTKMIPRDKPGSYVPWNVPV
Description: Inhibition of Oryctolagus cuniculus (rabbit) AOX in liver cytosol

Catalase = target: T3, Catalase (Bos taurus, UniProt P00432); type: ADME, tissue-based, Liver
T3 sequence (P00432 whole entry): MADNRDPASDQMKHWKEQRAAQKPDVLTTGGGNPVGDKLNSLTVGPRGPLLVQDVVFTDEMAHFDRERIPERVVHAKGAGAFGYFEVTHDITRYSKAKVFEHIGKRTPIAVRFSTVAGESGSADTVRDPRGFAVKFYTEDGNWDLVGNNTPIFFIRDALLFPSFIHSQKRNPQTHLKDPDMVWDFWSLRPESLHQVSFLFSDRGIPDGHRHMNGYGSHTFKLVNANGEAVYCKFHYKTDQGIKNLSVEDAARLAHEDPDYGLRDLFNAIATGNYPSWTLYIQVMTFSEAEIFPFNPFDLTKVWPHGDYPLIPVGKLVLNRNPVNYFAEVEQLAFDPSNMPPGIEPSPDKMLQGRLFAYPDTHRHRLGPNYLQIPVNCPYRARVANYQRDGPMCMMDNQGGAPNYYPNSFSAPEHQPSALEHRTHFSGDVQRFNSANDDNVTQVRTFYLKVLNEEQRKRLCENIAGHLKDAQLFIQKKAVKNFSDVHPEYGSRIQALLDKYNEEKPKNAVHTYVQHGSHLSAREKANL
Description: Inhibition of Bos taurus (bovine) CAT in liver

Spinacia oleracea = assay: Phytotoxicity against Spinacia oleracea (spinach) seedlings assessed as lesions at 100 ppm after 9 days; type: organism-based; details: in vivo, 216 h

| Structure (SMILES) | IC50 (Tyrosinase; read-out: IC50) [µM] | IC50 (Aldehyde oxidase 1) [µM] | IC50 (Catalase) [µM] | Activity (Spinacia oleracea) | IC50 (Tyrosinase) |
| --- | --- | --- | --- | --- | --- |
| O=Cc1cnc(Cl)s1 | 64 | 360 |  |  |  |
| O=C(O)c1cnc(Cl)s1 | > 1000 | > 1000 | > 1000 |  |  |
| O=C(O)C1CCOC1 (stereo not drawn) | > 1000 | > 1000 | > 1000 |  |  |
| O=C(O)c1ccc(Cl)cc1O | 520 | > 1000 | > 1000 |  |  |
| CCN(Cc1ccc(Cl)nc1)/C(=C/[N+](=O)[O-])NC | > 1000 | > 1000 |  |  |  |
| C/C(=N\C#N)N(C)Cc1ccc(Cl)nc1 | 1740 | > 1000 |  | Toxic |  |
| O=Cc1cccnc1Cl [2-CHLORONICOTINALDEHYDE] | > 1000 | 350 |  |  |  |
| O=C(O)c1cccnc1S [2-MERCAPTONICOTINIC ACID] | 80 | > 1000 | > 1000 |  |  |
| O=Cc1ccc(O)cc1 [4-HYDROXYBENZALDEHYDE] | 770 | 570 |  |  |  |
| O=Cc1ccc(Cl)nc1 [6-CHLORONICOTINALDEHYDE] | 770 | 720 |  |  |  |
| O=C(O)c1ccc(Cl)nc1 [6-CHLORONICOTINIC ACID] | > 1000 | > 1000 | > 1000 |  |  |
| O=C(O)c1ccc(S)nc1 [6-MERCAPTONICOTINIC ACID] | 42 | > 1000 | > 1000 |  |  |
| Oc1ncnc2[nH]ncc12 [ALLOPURINOL] | > 1000 | > 1000 |  |  |  |
| O=Cc1ccccc1 [BENZALDEHYDE] |  | 660 |  |  |  |
| O=C(O)c1ccccc1 [BENZOIC ACID] | 270 | > 1000 | > 1000 |  |  |
| CN/C(=N\[N+](=O)[O-])NCc1cnc(Cl)s1 [CLOTHIANIDINE] | > 1000 | > 1000 |  | Toxic |  |
| CN/C(=N/CC1CCOC1)N[N+](=O)[O-] (stereo not drawn) [DINOTEFURAN] | > 1000 | > 1000 |  |  |  |
| O=Cc1ccoc1 [FURAN-3-CARBALDEHYDE] | 15 | 260 |  |  |  |
| O=Cc1ccco1 [FURFURAL] | 43 | 700 |  |  |  |
| O=C(O)c1cccnc1 [NIACIN] | > 1000 |  |  |  |  |
| O=Cc1cccnc1 [NICOTINALDEHYDE] | 28 | 600 |  |  |  |
| N=C(N)NN [PIMAGEDINE] |  |  | 500 |  |  |
| O=C(c1ccc(OCCN2CCCCC2)cc1)c1c(-c2ccc(O)cc2)sc2cc(O)ccc12 [RALOXIFENE] |  | 1530 |  |  | ND(Insoluble) |
| O=CC1CCOC1 (stereo not drawn) [TETRAHYDROFURAN-3-CARBALDEHYDE] | > 1000 | 360 |  |  |  |
| CN1COCN(Cc2cnc(Cl)s2)/C1=N\[N+](=O)[O-] [THIAMETHOXAM] | > 1000 | > 1000 |  |  |  |
| O=Cc1cncs1 [THIAZOLE-5-CARBALDEHYDE] | 7 | 890 |  |  |  |
